In general, EC50 refers to the concentration needed to bring the measured effect to its halfway point. For orientation: Kp means the ratio of the level in a tissue or fluid to that in plasma or blood.

Activity calls are given as the source filed them. The rule behind the calls is not given here.

In series [1] the target is Cannabinoid receptor 1 (Homo sapiens, UniProt P21554). Nature of the series: Inverse agonist activity at human CB1 receptor expressed in HEK293 cells assessed as forskolin-stimulated cAMP accumulation after 30 mins by HTRF assay. It counts as functional, cell-based. A general note: Cyclic AMP is a second messenger, typically raised through Gs and lowered through Gi signalling.
Sequence of Cannabinoid receptor 1 (P21554 whole entry): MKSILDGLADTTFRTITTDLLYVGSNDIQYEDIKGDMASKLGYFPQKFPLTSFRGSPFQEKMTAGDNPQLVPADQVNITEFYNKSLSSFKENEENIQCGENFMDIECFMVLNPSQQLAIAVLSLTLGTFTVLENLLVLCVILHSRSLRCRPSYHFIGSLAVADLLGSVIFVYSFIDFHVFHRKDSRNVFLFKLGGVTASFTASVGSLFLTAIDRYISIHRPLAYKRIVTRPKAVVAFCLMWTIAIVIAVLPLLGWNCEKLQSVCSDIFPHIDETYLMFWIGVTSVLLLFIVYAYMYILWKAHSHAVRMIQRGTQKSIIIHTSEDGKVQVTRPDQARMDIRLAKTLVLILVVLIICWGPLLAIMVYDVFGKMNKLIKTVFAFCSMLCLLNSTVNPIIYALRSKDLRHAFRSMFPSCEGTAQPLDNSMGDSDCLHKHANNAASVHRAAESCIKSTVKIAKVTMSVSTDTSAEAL

Series [2] relates to Mus musculus. As to the kind of experiment: In vivo inverse agonist activity at CB1 receptor in C57 mouse assessed as reduction in CP55940-induced inhibition of upper gastrointestinal motility at 10 mg/kg, po after 2 hrs. The format is functional, organism-based.
A short description of series [3]: Ratio of drug level in brain to plasma in C57BL/6J mouse at 20 mg/kg, po measured after 1 hr. The conditions noted are these: brain and plasma. It counts as ADME, organism-based.
The species entered for series [4] is Homo sapiens. Nature of the series: Selectivity index, ratio of EC50 for human CB2 receptor expressed in HEK293 cells to EC50 for human CB1 receptor expressed in HEK293 cells. It counts as cell-based.
Series [5] is described as follows: Ratio of drug level in brain to plasma in C57BL/6J mouse at 20 mg/kg, po measured after 4 hr. The conditions noted are these: brain and plasma. It counts as ADME, organism-based.

As to `O=C(NC(CO)(CO)CO)c1ccc(S(=O)(=O)N2CCC(Nc3ncnc4ccc(C(c5ccc(Cl)cc5)c5ccc(Cl)cc5)cc34)CC2)cc1`, the EC50 in series [1] amounted to 7.8 nM.
Regarding `Cc1c(C(=O)NN2CCCCC2)nn(-c2ccc(Cl)cc2Cl)c1-c1ccc(Cl)cc1`, the outcome in series [2] was Active.
`O=S(=O)(N1CCC(Nc2ncnc3ccc(C(c4ccc(Cl)cc4)c4ccc(Cl)cc4)cc23)CC1)C(F)(F)F`: the results for the partition ratio (Kp) at 1 h in series [3] and in series [5] were 0.02 and 0.08, respectively. Besides, the Ratio EC50 in series [4] worked out at 170. The EC50 in series [1] was 4.6 nM.

The values are drawn from ChEMBL document CHEMBL4665918, “Discovery of PEGylated 6-Benzhydryl-4-amino-quinazolines as Peripherally Restricted CBR Inverse Agonists” (ACS Med Chem Lett, 2020).
